Reference: ChEMBL document CHEMBL4665820, “Discovery of VU6027459: A First-in-Class Selective and CNS Penetrant mGlu Positive Allosteric Modulator Tool Compound” (ACS Med Chem Lett, 2020)

Columns and labels:
[1] = biological target: Adenosine receptor A1 (Homo sapiens) (UniProt P30542); experiment: Displacement of [3H]-DPCPX from human recombinant adenosine A1 receptor at 10 uM after 60 mins by scintillation counting analysis relative to control
[2] = biological target: Adenosine receptor A2a (Homo sapiens) (UniProt P29274); experiment: Displacement of [3H]-CGS 21680 from human recombinant adenosine A2A receptor at 10 uM after 120 mins by scintillation counting analysis relative to control
[3] = biological target: Adenosine receptor A3 (Homo sapiens) (UniProt P0DMS8); experiment: Displacement of [125I]AB-MECA from human recombinant adenosine A3 receptor at 10 uM after 120 mins by scintillation counting analysis relative to control
[4] = biological target: Alpha-1A adrenergic receptor (Homo sapiens) (UniProt P35348); experiment: Displacement of [3H]-Prazosin from human recombinant adrenergic alpha 1A receptor at 10 uM incubated for 60 mins by scintillation counting analysis relative to control
[5] = biological target: Alpha-1D adrenergic receptor (Homo sapiens) (UniProt P25100); experiment: Displacement of [3H]-Prazosin from human recombinant adrenergic alpha 1D receptor at 10 uM incubated for 60 mins by scintillation counting analysis relative to control
[6] = biological target: Alpha-2A adrenergic receptor (Homo sapiens) (UniProt P08913); experiment: Displacement of [3H]-RX821002 from human recombinant adrenergic alpha 2A receptor at 10 uM incubated for 60 mins by scintillation counting analysis relative to control
[7] = biological target: Androgen receptor (Homo sapiens) (UniProt P10275); experiment: Displacement of [3H]-methyltrienolone from human androgen receptor at 10 uM incubated for 1440 mins by scintillation counting analysis relative to control
[8] = species: Rattus norvegicus; experiment: Displacement of [3H]-Nitrendipine from L-type calcium channel dihydropyridine binding site in rat brain at 10 uM incubated for 90 mins by scintillation counting analysis relative to control; type: tissue-based
[9] = species: Rattus norvegicus; experiment: Displacement of [125I]-Omega -conotoxin GIVA from N-type calcium channel in rat brain membrane at 10 uM incubated for 30 mins by scintillation counting analysis relative to control; type: cell membranes
[10] = biological target: Cannabinoid receptor 1 (Homo sapiens) (UniProt P21554); experiment: Displacement of [3H]-SR141716A from human recombinant full length Cannabinoid CB1 receptor at 10 uM incubated for 60 mins by scintillation counting analysis relative to control
[11] = biological target: D(1A) dopamine receptor (Homo sapiens) (UniProt P21728); experiment: Displacement of [3H]-SCH 23390 from human recombinant dopamine D1 receptor at 10 uM by scintillation counting 60 mins analysis relative to control
[12] = system: CHO-K1; experiment: Inhibition of human recombinant full length Dopamine D4.2 receptor expressed in CHOK1 cells at 10 uM incubated for 30 mins by GTPgammaS assay relative to control; type: cell-based
[13] = biological target: Gamma-aminobutyric acid type B receptor subunit 1 (Homo sapiens) (UniProt Q9UBS5); experiment: Displacement of [3H]-CGP54626 from human recombinant GABAB1A channel at 10 uM incubated for 180 mins by scintillation counting analysis relative to control
[14] = biological target: Glucocorticoid receptor (Homo sapiens) (UniProt P04150); experiment: Displacement of [3H]-Dexamethasone from human Glucocorticoid receptors at 10 uM incubated for 360 mins by scintillation counting analysis relative to control
[15] = species: Rattus norvegicus; experiment: Displacement of [3H]-Kainic acid from Glutamate ionotropic kainate receptor in rat at 10 uM incubated for 120 mins by scintillation counting analysis relative to control
[16] = biological target: Glutamate NMDA receptor (Rattus norvegicus) (UniProt P35439+Q00959+Q00960+Q00961+Q62645+Q8VHN2+Q9R1M7); experiment: Displacement of [3H]-CGP39653 from NMDA glutamate receptor in rat at 10 uM incubated for 20 mins by scintillation counting analysis relative to control
[17] = species: Rattus norvegicus; experiment: Displacement of [3H]-TCP from NMDA glutamate receptor phencyclidine binding site in rat at 10 uM incubated for 45 mins by scintillation counting analysis relative to control
[18] = biological target: Histamine H1 receptor (Homo sapiens) (UniProt P35367); experiment: Displacement of [3H]pyrilamine from human recombinant histamine H1 receptor at 10 uM after 60 mins by scintillation counting analysis relative to control
[19] = biological target: Histamine H3 receptor (Homo sapiens) (UniProt Q9Y5N1); experiment: Displacement of [3H]-N-alpha-Methylhistamine from human recombinant Histamine H3 receptor at 10 uM incubated for 60 mins by scintillation counting analysis relative to control
[20] = species: Rattus norvegicus; experiment: Displacement of [3H]-idazoxan from rat imidazoline I2 receptor at 10 uM incubated for 30 mins by scintillation counting analysis relative to control
[21] = biological target: Muscarinic acetylcholine receptor M3 (Homo sapiens) (UniProt P20309); experiment: Displacement of [3H]4-DAMP from human recombinant M3 receptor at 10 uM after 60 mins by scintillation counting analysis relative to control
[22] = biological target: Neuronal acetylcholine receptor; alpha3/beta4 (Homo sapiens) (UniProt P30926+P32297); experiment: Displacement of [125I] epibatidine from human nicotinic acetylcholine receptor alpha3/beta4 at 10 uM incubated for 60 mins by scintillation counting analysis relative to control; type: protein-complex assay
[23] = biological target: Kappa-type opioid receptor (Homo sapiens) (UniProt P41145); experiment: Displacement of [3H]U69593 from human kappa receptor at 10 uM after 60 mins by scintillation counting analysis relative to control
[24] = biological target: Mu-type opioid receptor (Homo sapiens) (UniProt P35372); experiment: Displacement of [3H]DAMGO from human recombinant mu receptor at 10 uM after 120 mins by scintillation counting analysis relative to control
[25] = biological target: Platelet-activating factor receptor (Homo sapiens) (UniProt P25105); experiment: Displacement of [3H]-C18-PAF from human PAF receptor at 10 uM incubated for 180 mins by scintillation counting analysis relative to control
[26] = biological target: P2X receptor (Rattus norvegicus) (UniProt P51579+P49653+P51578+Q64663+P47824+P51577+P49654); experiment: Displacement of [3H]alpha, beta-methylene ATP from P2X receptor in rat urinary bladder at 10 uM incubated for 120 mins by scintillation counting analysis relative to control
[27] = species: Rattus norvegicus; experiment: Displacement of [3H]-Rolipram from phosphodiesterases PDE4 rolipram binding site in rat at 10 uM incubated for 60 mins by radioligand binding assay relative to control
[28] = biological target: 5-hydroxytryptamine receptor 2B (Homo sapiens) (UniProt P41595); experiment: Displacement of [125I]+/-DOI from human recombinant 5-HT2B receptor at 10 uM after 60 mins by scintillation counting analysis relative to control
[29] = biological target: Sigma non-opioid intracellular receptor 1 (Homo sapiens, UniProt Q99720); experiment: Displacement of [3H]-Pentazocine from human recombinant sigma 1 receptor at 10 uM incubated for 120 mins by scintillation counting analysis relative to control
[30] = biological target: Sodium-dependent serotonin transporter (Homo sapiens) (UniProt P31645); experiment: Displacement of [3H]-imipramine from recombinant human 5-HT transporter at 10 uM after 60 mins by scintillation counting relative to control

Gamma-aminobutyric acid type B receptor subunit 1 (Homo sapiens), sequence (Q9UBS5 whole entry): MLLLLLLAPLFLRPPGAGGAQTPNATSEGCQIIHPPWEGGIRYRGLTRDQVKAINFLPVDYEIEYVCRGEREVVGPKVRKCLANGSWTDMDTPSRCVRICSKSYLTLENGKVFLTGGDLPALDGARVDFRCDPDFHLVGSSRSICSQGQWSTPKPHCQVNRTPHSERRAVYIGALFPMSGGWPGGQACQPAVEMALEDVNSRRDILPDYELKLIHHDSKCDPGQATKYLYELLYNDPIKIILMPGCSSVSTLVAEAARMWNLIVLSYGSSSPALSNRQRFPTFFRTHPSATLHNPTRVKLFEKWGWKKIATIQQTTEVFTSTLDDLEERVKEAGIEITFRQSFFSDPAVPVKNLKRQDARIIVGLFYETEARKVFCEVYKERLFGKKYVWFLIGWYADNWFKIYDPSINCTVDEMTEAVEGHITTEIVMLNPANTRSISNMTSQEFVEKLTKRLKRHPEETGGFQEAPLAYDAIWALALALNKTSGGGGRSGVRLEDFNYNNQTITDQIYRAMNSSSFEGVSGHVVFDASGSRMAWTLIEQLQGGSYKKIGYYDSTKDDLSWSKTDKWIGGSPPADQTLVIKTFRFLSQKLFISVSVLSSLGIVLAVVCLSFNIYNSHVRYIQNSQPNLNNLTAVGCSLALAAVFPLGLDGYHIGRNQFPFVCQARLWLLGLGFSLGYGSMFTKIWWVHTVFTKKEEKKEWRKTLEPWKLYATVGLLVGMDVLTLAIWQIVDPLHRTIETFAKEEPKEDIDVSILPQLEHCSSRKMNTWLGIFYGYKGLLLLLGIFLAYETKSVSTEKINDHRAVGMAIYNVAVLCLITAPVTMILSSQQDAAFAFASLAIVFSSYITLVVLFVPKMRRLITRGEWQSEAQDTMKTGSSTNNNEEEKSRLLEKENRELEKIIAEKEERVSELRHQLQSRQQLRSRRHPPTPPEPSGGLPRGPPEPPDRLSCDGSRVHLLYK
Muscarinic acetylcholine receptor M3 (Homo sapiens), sequence (P20309 whole entry, looked up): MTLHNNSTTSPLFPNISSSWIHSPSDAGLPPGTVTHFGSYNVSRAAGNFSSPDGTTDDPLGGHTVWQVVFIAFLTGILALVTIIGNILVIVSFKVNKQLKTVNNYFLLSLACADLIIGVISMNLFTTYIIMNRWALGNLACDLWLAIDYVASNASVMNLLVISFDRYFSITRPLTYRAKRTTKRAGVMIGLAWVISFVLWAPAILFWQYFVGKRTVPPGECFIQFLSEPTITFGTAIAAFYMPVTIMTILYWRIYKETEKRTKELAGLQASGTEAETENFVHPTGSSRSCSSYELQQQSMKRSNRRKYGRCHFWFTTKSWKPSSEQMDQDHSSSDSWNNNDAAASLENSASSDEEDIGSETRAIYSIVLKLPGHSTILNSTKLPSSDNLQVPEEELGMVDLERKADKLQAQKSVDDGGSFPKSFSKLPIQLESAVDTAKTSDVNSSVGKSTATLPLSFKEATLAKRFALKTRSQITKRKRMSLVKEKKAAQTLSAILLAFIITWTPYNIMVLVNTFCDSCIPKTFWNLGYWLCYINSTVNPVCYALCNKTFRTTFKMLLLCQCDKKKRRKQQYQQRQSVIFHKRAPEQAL
Androgen receptor (Homo sapiens), sequence (P10275 whole entry): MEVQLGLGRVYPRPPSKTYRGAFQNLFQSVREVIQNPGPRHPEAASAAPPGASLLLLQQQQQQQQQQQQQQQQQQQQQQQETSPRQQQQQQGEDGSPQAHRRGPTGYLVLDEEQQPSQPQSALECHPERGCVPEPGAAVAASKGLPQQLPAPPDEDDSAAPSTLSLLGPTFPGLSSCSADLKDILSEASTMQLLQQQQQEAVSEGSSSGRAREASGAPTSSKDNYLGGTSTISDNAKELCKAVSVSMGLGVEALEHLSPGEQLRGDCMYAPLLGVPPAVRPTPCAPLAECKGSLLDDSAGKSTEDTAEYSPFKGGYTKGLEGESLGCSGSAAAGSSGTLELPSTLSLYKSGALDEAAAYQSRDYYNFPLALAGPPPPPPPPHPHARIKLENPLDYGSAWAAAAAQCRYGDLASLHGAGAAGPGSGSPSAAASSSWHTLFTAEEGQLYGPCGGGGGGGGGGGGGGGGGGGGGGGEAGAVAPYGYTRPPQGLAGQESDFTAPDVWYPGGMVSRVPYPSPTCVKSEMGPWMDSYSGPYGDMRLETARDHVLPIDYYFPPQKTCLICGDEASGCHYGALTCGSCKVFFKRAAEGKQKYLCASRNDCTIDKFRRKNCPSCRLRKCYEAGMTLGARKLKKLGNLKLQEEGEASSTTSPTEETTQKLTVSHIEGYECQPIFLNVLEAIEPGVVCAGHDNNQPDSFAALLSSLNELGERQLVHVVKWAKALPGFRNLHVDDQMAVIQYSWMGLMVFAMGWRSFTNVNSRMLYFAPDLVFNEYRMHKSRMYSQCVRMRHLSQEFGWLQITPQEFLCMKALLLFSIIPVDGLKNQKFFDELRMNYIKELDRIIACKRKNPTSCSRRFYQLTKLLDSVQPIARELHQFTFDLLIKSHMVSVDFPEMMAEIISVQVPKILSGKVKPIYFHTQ
Alpha-1A adrenergic receptor (Homo sapiens), sequence (P35348 whole entry): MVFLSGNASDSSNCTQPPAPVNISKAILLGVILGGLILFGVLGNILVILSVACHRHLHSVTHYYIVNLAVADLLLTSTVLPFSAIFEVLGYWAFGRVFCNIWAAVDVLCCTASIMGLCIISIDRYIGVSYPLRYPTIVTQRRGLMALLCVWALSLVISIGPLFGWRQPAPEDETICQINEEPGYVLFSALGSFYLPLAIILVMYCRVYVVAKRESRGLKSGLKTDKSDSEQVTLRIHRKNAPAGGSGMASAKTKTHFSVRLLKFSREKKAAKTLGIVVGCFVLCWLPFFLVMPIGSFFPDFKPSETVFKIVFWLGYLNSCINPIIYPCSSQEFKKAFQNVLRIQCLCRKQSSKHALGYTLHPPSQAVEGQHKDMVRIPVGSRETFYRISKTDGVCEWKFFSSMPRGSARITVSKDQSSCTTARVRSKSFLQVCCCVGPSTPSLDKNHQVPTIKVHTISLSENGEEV
Histamine H1 receptor (Homo sapiens), sequence (P35367 whole entry): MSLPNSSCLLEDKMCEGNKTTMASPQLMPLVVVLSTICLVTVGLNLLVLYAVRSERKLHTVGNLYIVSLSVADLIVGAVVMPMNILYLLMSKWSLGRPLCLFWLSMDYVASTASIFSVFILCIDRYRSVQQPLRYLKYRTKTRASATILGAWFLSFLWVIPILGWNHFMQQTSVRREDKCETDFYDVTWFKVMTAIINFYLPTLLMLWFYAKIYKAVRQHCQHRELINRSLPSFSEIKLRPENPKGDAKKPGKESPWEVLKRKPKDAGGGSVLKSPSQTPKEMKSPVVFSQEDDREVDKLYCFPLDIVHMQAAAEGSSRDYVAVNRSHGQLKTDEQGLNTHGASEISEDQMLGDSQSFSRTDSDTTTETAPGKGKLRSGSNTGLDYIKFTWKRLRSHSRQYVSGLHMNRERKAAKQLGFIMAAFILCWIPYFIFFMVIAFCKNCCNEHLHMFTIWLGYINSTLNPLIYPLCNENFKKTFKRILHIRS
Platelet-activating factor receptor (Homo sapiens), sequence (P25105 whole entry): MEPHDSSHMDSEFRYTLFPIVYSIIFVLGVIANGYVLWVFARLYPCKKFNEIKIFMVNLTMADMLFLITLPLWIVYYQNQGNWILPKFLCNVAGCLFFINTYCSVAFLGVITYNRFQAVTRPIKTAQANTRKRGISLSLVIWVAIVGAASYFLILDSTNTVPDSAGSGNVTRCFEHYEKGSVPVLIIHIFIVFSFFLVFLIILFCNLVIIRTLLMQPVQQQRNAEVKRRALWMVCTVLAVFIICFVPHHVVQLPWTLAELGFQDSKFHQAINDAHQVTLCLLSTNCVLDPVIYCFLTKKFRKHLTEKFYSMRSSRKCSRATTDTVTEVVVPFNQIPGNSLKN
Adenosine receptor A1 (Homo sapiens), sequence (P30542 whole entry): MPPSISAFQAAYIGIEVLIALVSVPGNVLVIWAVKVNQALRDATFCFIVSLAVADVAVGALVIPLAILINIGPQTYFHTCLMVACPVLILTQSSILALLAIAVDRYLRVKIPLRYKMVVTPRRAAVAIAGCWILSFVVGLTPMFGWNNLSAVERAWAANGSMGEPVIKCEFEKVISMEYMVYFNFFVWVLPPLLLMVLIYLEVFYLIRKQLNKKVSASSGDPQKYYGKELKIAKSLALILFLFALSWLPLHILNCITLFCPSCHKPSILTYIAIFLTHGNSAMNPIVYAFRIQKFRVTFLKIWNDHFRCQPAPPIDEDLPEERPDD
D(1A) dopamine receptor (Homo sapiens), sequence (P21728 whole entry): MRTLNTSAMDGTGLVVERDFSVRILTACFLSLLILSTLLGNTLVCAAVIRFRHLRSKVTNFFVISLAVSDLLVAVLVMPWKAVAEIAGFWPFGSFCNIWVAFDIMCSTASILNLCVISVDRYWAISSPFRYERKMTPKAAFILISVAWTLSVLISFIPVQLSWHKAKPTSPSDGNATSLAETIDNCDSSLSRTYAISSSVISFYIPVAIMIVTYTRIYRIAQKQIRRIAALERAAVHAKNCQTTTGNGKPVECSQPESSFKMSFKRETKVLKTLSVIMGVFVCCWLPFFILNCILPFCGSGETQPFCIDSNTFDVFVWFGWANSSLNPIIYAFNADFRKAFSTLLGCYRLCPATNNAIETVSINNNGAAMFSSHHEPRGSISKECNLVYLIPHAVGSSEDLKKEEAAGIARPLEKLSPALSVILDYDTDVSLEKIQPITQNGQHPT
Kappa-type opioid receptor (Homo sapiens), sequence (P41145 whole entry): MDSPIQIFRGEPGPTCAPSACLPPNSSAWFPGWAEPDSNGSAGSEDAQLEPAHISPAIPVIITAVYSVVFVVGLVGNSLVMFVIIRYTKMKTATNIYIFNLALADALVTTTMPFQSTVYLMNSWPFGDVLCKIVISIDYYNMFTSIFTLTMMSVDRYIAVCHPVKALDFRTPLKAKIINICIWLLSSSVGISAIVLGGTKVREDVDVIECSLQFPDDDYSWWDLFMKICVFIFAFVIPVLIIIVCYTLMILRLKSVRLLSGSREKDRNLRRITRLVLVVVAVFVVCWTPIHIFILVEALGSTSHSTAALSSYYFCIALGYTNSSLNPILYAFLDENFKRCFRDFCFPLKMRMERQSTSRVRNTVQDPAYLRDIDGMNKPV

SMILES: COc1cc(F)cc2c(N3CCN(c4ccccc4F)CC3)c(C#N)cnc12
- inhibition ([1]; tested as the 2H-labelled form): < 50%
- inhibition ([2]; tested as the 2H-labelled form): < 50%
- inhibition ([3]; tested as the 2H-labelled form): < 50%
- inhibition ([4]; tested as the 2H-labelled form): < 50%
- inhibition ([5]; tested as the 2H-labelled form): < 50%
- inhibition ([6]; tested as the 2H-labelled form): < 50%
- inhibition ([7]; tested as the 2H-labelled form): < 50%
- inhibition ([8]; tested as the 2H-labelled form): < 50%
- inhibition ([9]; tested as the 2H-labelled form): < 50%
- inhibition ([10]; tested as the 2H-labelled form): < 50%
- inhibition ([11]; tested as the 2H-labelled form): < 50%
- inhibition ([12]; tested as the 2H-labelled form): < 50%
- inhibition ([13]; tested as the 2H-labelled form): < 50%
- inhibition ([14]; tested as the 2H-labelled form): < 50%
- inhibition ([15]; tested as the 2H-labelled form): < 50%
- inhibition ([16]; tested as the 2H-labelled form): < 50%
- inhibition ([17]; tested as the 2H-labelled form): < 50%
- inhibition ([18]; tested as the 2H-labelled form): < 50%
- inhibition ([19]; tested as the 2H-labelled form): < 50%
- inhibition ([20]; tested as the 2H-labelled form): < 50%
- inhibition ([21]; tested as the 2H-labelled form): < 50%
- inhibition ([22]; tested as the 2H-labelled form): < 50%
- inhibition ([23]; tested as the 2H-labelled form): < 50%
- inhibition ([24]; tested as the 2H-labelled form): < 50%
- inhibition ([25]; tested as the 2H-labelled form): < 50%
- inhibition ([26]; tested as the 2H-labelled form): < 50%
- inhibition ([27]; tested as the 2H-labelled form): < 50%
- inhibition ([28]; tested as the 2H-labelled form): < 50%
- inhibition ([29]; tested as the 2H-labelled form): 77%
- inhibition ([30]; tested as the 2H-labelled form): < 50%

SMILES: COc1cccc2c(N3CCN(c4ccccc4F)CC3)c(C#N)cnc12
- inhibition [1]: < 50%
- inhibition [2]: < 50%
- inhibition [3]: < 50%
- inhibition [4]: < 50%
- inhibition [5]: < 50%
- inhibition [6]: < 50%
- inhibition [7]: < 50%
- inhibition [8]: < 50%
- inhibition [9]: < 50%
- inhibition [10]: < 50%
- inhibition [11]: < 50%
- inhibition [12]: < 50%
- inhibition [13]: < 50%
- inhibition [14]: < 50%
- inhibition [15]: < 50%
- inhibition [16]: < 50%
- inhibition [17]: < 50%
- inhibition [18]: < 50%
- inhibition [19]: < 50%
- inhibition [20]: < 50%
- inhibition [21]: < 50%
- inhibition [22]: < 50%
- inhibition [23]: < 50%
- inhibition [24]: < 50%
- inhibition [25]: < 50%
- inhibition [26]: < 50%
- inhibition [27]: < 50%
- inhibition [28]: < 50%
- inhibition [29]: < 50%
- inhibition [30]: < 50%
